# PubChem BioAssay AID1333 (NMMLSC, 2008)
# Target: Cell division control protein 42 homolog (Homo sapiens) (UniProt P60953)
# Assay: activated mutant Cdc42 GTP-binding inhibitors, dose response, biochemical, multiplex bead flow cytometry, Bodipy-FL-GTP (AID 1333);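 further: potency of compounds that compete with and reduce fluorescent GTP binding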
# Settings: bead-based flow cytometry
row,Compound,EC50
1,Cc1nn(Cc2ccccc2)c(Cl)c1C(=O)O,13.9 µM
2,O=C(Nc1ccccc1)C1=C(c2ccccc2)S(=O)(=O)CCS1(=O)=O,43.9 µM
3,COc1cccc(NC(=O)COC(=O)/C=C/c2ccc(Cl)cc2Cl)c1,3.53 µM
4,Cc1nc2c(=O)n(C)c(=O)nc-2n(C)n1,1.61 µM
5,CCOc1ccc(/C=C2\SC(N3CCc4ccccc4C3)=NC2=O)cc1,16.5 µM
6,Cc1cc(C)c(C)c(C(=O)c2ccccc2C(=O)O)c1C,4.95 µM
7,CC(C)C(NCc1c(Cl)cccc1Cl)C(=O)O (configuration not stated),5.85 µM
8,Cc1cccc2cc(CN(Cc3cccs3)C(c3nnnn3C3CCCC3)C(C)C)c(=O)[nH]c12 (configuration not stated),1.63 µM
9,O=C(NCc1ccc2c(c1)OCO2)c1ccc(CSCc2cccc(Cl)c2)o1,20.6 µM
10,N#Cc1c(-c2ccccc2)nc(SCC(=O)Nc2ccccc2)[nH]c1=O,1.66 µM
11,O=C(O)c1ccccc1NCCc1ccc(Cl)cc1,0.885 µM
12,Cc1ccc(SC(CC(=O)c2ccc(C(C)(C)C)cc2)C(=O)O)cc1 (configuration not stated),5.11 µM
13,CCn1nc(/C=C/c2ccccc2)nc2c(=O)n(C)c(=O)nc1-2,1.44 µM
14,CCOC(=O)c1cc([N+](=O)[O-])c([N+](=O)[O-])cc1NC(C)=O,7.18 µM
15,O=C(C#Cc1ccc(F)cc1)c1ccc([N+](=O)[O-])cc1,3.55 µM
16,NS(=O)(=O)c1ccc(N2N=C(c3ccccc3)CC2c2cccc(F)c2)cc1 (configuration not stated),9.59 µM
17,O=C(O)/C=C/c1cn(Cc2ccccc2)nc1-c1cccs1,2.18 µM
18,Cc1ccc(NC(=O)C2=C(c3ccccc3)S(=O)(=O)CCS2(=O)=O)cc1,58.7 µM
19,COc1cccc(-n2nnnc2S(C)(=O)=O)c1,15.4 µM

row,Compound,EC50
1,O=C(O)c1cc(Sc2ccc(Cl)cc2)nc2ccccc12,18.7 µM
2,O=C(NCc1cccs1)c1cccnc1C(=O)O,4.31 µM
3,CCCN1C(=O)/C(=C/C=C2\N(CC)c3ccccc3C2(C)C)SC1=S,5.59 µM
4,Cc1ccc(-n2c(-c3cnccn3)n[nH]c2=S)c(Br)c1,53.8 µM
5,COC(=O)c1cccnc1SCCc1ccccc1,24.2 µM
6,COc1ccc(-c2cc(C#N)nc(N3CCNCC3)n2)cc1,27.1 µM
7,Cc1cc(C(=O)Cn2nc(C(=O)O)c3ccccc3c2=O)c(C)n1-c1ccc(OC(F)F)cc1,4.89 µM
8,Cc1ccc(C)c(OCCn2cc(C(=O)O)c3ccccc32)c1,0.358 µM
9,O=C(Nc1nnc(-c2ccc3c(c2)OCCO3)o1)c1ccc(Cc2ccccc2)cc1,2.79 µM
10,CCCc1nc2c(=O)n(C)c(=O)nc-2n(C)n1,1.77 µM
11,CS(=O)(=O)c1ccc(C(=O)OCC(=O)NC(=O)C2CCCCC2)cc1[N+](=O)[O-],12.9 µM
12,OC(CNCCc1ccc(Cl)cc1)COc1ccc2ccccc2c1 (configuration not stated),11.3 µM
13,O=C(C#Cc1ccccc1)c1cccc([N+](=O)[O-])c1,13.5 µM
14,COc1ccc(C2CC(c3ccccc3)=NN2c2ccc(S(N)(=O)=O)cc2)cc1 (configuration not stated),8.04 µM
15,CC(=O)c1ccc(C#CC(=O)c2ccc([N+](=O)[O-])cc2)cc1,0.989 µM
16,O=C(O)c1ccccc1Sc1ncnc2sc3c(c12)CCC3,1.84 µM
17,O=C(C#CC1CCCCC1)c1ccc([N+](=O)[O-])cc1,45.9 µM
18,CCc1ccc(NS(=O)(=O)c2ccc3[nH]cc(C(=O)N4CCc5ccccc54)c(=O)c3c2)cc1,50.1 µM
